Residues, ends and D or L forms follow the SMILES beside them.
Experiment: Identification of absorbed peptides in plasma (PDA-HPLC, LC-MS/MS)
Type: in vivo
Conditions: pigs fed Peptide Composition 1 (Example 1), blood collected during dissection; 3 peptide peaks present
Description: First, between 3 and 5 day-old 18 pigs were divided into 3 groups and they were bred for 3 days. Then the groups were designated as test groups (Example 1 and Comparative Example 1) and a control group (Comparative Example 2) and 1.25 g of dextran sulfate per kg of body weight was given as drinking water for 5 days (DSS treatment). Then, 250 mg of Peptide Composition 1 per kg of body weight was fed for 5 days in Example 1, 250 mg of Peptide Composition 2 per kg of body weight was fed for 5 days in Comparative Example 1, and alanine corresponding to the nitrogen content of the peptide was fed in Comparative Example 2. After that, the intestinal tract cells were collected during dissection and cytokines were measured. Comparative Example 2 corresponds to the control. (Dextran sulfate is a substance which induces bowel inflammation. International J. of Colorectal Disease, 15, 144-160 (2000))
Blood was collected during dissection and plasma was isolated, and then the structural analysis of a peak obtained by PDA-HPLC was carried out by LC-MS/MS to identify an amino acid sequence of the peptides.

peptide peak present in plasma: largest peak
SMILES: CC(C)C[C@H](NC(=O)[C@@H](N)Cc1ccccc1)C(=O)N[C@H](C(=O)O)C(C)C [FLV, Phe-Leu-Val] (H-Phe-Leu-Val-OH; N-terminus and C-terminus assumed)

Reference: US20120157395A1, “ANTI-INFLAMMATORY AGENT FOR ORAL APPLICATION, AND ANTI-INFLAMMATORY PEPTIDE FOR ORAL APPLICATION” (priority 2009, published 2012)
